In general, melting point refers to the temperature of the solid-liquid transition.

This note sets out measurements from patent US8618287B2, “Derivatives of triazines and uracils, their preparation and their application in human therapeutics” (Pierre Fabre Medicament, priority 2008, dated 2013).

Tested on in one data set: not given
Assay: not given
Details: not given
`Cn1nc(N2CCN(C(=O)c3ccccc3C(F)(F)F)C(=O)C2)c(=O)n(C)c1=O` [Example 53, 2,4-dimethyl-6-[3-oxo-4-(2-trifluoromethyl-benzoyl)-piperazin-1-yl]-2H-[1,2,4]triazine-3,5-dione]: the melting point was 90 °C.
In turn, `Cn1cc(N2CCN(C(=O)c3ccccc3C(F)(F)F)CC2)c(=O)n(C)c1=O` [Example 62, 1,3-dimethyl-5-[4-(2-trifluoromethyl-benzoyl)-piperazin-1-yl]-1H-pyrimidine-2,4-dione] had a melting point of 163 °C.
The compound `O=c1[nH]nc(N2CCC(Oc3ccccc3C(F)(F)F)CC2)c(=O)n1CCCC(F)(F)F` [Example 72, 4-(4,4,4-trifluoro-butyl)-6-[4-(2-trifluoromethyl-phenoxy)-piperidin-1-yl]-2H-[1,2,4]triazine-3,5-dione] came in with a melting point of 102 °C.
For `Cn1c(=O)c(N2CCC(Oc3ccccc3C(F)(F)F)CC2)nn(C2Cc3ccccc3C2=O)c1=O` (centres unmarked) [Example 87, 4-methyl-2-(1-oxo-indan-2-yl)-6-[4-(2-trifluoromethyl-phenoxy)-piperidin-1-yl]-2H-[1,2,4]triazine-3,5-dione], the melting point was determined as 110 °C.
For `Cn1nc(N2CCC(Oc3cc(F)ccc3Cl)CC2)c(=O)[nH]c1=O` [Example 90, 6-(4-(2-chloro-5-fluorophenoxy)piperidin-1-yl)-2-methyl-1,2,4-triazine-3,5(2H, 4H)-dione], the melting point was determined as 172 °C.

The target in another data set is T1, Human SCD-1 (Homo sapiens, UniProt O00767).
T1 construct: adding 125 μg of microsomal fraction of HepG2 cells; host or cells: HepG2 human hepatocarcinoma cells (microsomal fraction)
T1 sequence (O00767 1-359): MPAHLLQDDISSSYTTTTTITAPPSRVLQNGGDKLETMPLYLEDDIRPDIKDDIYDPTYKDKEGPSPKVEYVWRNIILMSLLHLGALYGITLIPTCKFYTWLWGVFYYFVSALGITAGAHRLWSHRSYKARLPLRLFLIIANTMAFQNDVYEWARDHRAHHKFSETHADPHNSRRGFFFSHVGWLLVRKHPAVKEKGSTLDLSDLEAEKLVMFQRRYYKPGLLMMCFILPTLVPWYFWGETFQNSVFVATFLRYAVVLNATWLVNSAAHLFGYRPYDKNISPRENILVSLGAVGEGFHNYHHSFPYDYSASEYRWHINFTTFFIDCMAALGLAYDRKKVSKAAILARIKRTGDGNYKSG
The experiment in a line: Human SCD-1 enzymatic activity from microsomes of HepG2 cells (conversion of stearic acid into oleic acid). Conditions: 10 μM compound; microsomal fraction of HepG2 cells; relative to carrier 0.1% DMSO. Type of data set: biochemical. On the procedure: In vitro: Human SCD-1 enzymatic activity from microsomes of HepG2 cells after treatment with inhibitory compounds (inhibition %).
Human hepatocarcinoma HepG2 cells (ATCC, HB-8065) are grown to confluence and then trypsinized. The cell pellet is taken up in 10 mM Tris buffer (pH 7.4), saccharose (250 mM) DTT (1 mM) and then the cells are lyzed by sonication. The microsomes are obtained after centrifugation at 10,000 g for 20 minutes a 4° C. followed by centrifugation of the supernatant at 100,000 g for 60 minutes a 4° C. The pellet is taken up in 10 mM Tris buffer (pH 7.4) saccharose (250 mM) at 4° C. and the microsomal proteins are assayed and stored at −196° C. (liquid nitrogen).
The enzymatic reaction measures the conversion of stearic acid (a C18:0 fatty acid) into oleic acid (C18:1 fatty acid) by SCD-1. The enzymatic reaction is started by adding 125 μg of microsomal fraction of HepG2 cells to tubes (total reaction volume of 500 μl) containing 62 μM of stearic acid (45 μM of stearic acid and 17 μM of [^14C] stearic acid) in a phosphate buffer at 100 mM (pH 7.16) with 7.2 mM of ATP, 0.54 mM of CoA, 6 mM of MgCl2, 0.8 mM of NADH and the inhibitory compound or the carrier (0.1% DMSO). The tubes are incubated for 20 minutes at 37° C. and the enzymatic reaction is then stopped by adding KOH (12%) and saponification for 30 minutes at 80° C. After acidification (3N HCl), the fatty acids are extracted twice with ethyl ether, evaporated under nitrogen before being taken up with a methanol/dichloromethane (3:1) mixture. The product of the reaction (C18:1) is separated from the substrate of the reaction (C18:0) by HPLC (Perkin Elmer, C18 reverse phase column) coupled to a on-line radioactivity detector (FlowOne). Enzymatic activity is calculated in picomoles of stearic acid converted into oleic acid per minute and per mg of protein. For each inhibitory compound, an inhibition % is determined relatively to the reference enzymatic activity (carrier 0.1% DMSO). Sterculic acid is the reference inhibitory compound (Gomez F. E., Bauman D. E., Ntambi J. M., Fox B. G. Effects of sterculic acid on stearoyl-CoA desaturase in differentiating […] adipocytes. Biochem Biophys Res Commun. 300 316-326 (2003)).
In the case of `CCCCCCCCC1=C(CCCCCCCC(=O)O)C1` [Sterculic acid, reference compound], the “HSCD-1 (HEPG2) % inh. (10 μM)” value is 100%.

The same data set, now with this note: 10 μM compound; microsomal fraction of HepG2 cells; relative to carrier 0.1% DMSO; read-out: HSCD-1 (HEPG2) % inh. (10 μM).
In the case of `CCCCCCCn1c(=O)c(N2CCN(C(=O)c3ccccc3C(F)(F)F)CC2)nn(C)c1=O` [Example 1, 4-heptyl-2-methyl-6-[4-(2-trifluoromethyl-benzoyl)-piperazin-1-yl]-2H-[1,2,4]triazine-3,5-dione], the inhibition at 10 µM was found to be 11%.
The same measure, in the same setting: under `Cn1c(=O)c(N2CCN(C(=O)c3ccccc3C(F)(F)F)CC2)nn(CCCC(F)(F)F)c1=O` [Example 3, 4-methyl-2-(4,4,4-trifluoro-butyl)-6-[4-(2-trifluoromethyl-benzoyl)-piperazin-1-yl]-2H-[1,2,4]triazine-3,5-dione] stands 90%.
Same read-out and setting: then `Cn1nc(N2CCC(Oc3ccccc3C(F)(F)F)CC2)c(=O)n(C)c1=O` [Example 11, 2,4-dimethyl-6-[4-(2-trifluoromethyl-phenoxy)-piperidin-1-yl]-2H-[1,2,4]triazine-3,5-dione], with 92%; and `CCCCCCCn1c(=O)c(N2CCC(Oc3ccccc3C(F)(F)F)CC2)nn(CCC#N)c1=O` [Example 12, 3-{4-heptyl-3,5-dioxo-6-[4-(2-trifluoromethyl-phenoxy)-piperidin-1-yl]-4,5-dihydro-3H-[1,2,4]triazin-2-yl}-propionitrile], with 71%; and `CCCCn1nc(N2CCC(Oc3ccccc3C(F)(F)F)CC2)c(=O)n(C)c1=O` [Example 13, 2-butyl-4-methyl-6-[4-(2-trifluoromethyl-phenoxy)-piperidin-1-yl]-2H-[1,2,4]triazine-3,5-dione], with 75%.
Take `CNC(=O)Cn1nc(N2CCC(Oc3ccccc3C(F)(F)F)CC2)c(=O)n(C)c1=O` [Example 14, N-methyl-2-{4-methyl-3,5-dioxo-6-[4-(2-trifluoromethyl-phenoxy)-piperidin-1-yl]-4,5-dihydro-3H-[1,2,4]triazin-2-yl}-acetamide]: the inhibition at 10 µM stood at 74%.
Same read-out and setting: under `CCOCCn1nc(N2CCC(Oc3ccccc3C(F)(F)F)CC2)c(=O)n(C)c1=O` [Example 15, 2-(2-ethoxy-ethyl)-4-methyl-6-[4-(2-trifluoromethyl-phenoxy)-piperidin-1-yl]-2H-[1,2,4]triazine-3,5-dione] stands 74%; under `Cn1c(=O)c(N2CCC(Oc3ccccc3C(F)(F)F)CC2)nn(CCc2c[nH]c3ccccc23)c1=O` [Example 16, 2-[2-(1H-Indol-3-yl)-ethyl]-4-methyl-6-[4-(2-trifluoromethyl-phenoxy)-piperidin-1-yl]-2H-[1,2,4]triazine-3,5-dione], 57%; under `Cn1c(=O)c(N2CCC(Oc3ccccc3C(F)(F)F)CC2)nn(CCCC(=O)c2cccs2)c1=O` [Example 19, 4-methyl-2-(4-oxo-4-thiophen-2-yl-butyl)-6-[4-(2-trifluoromethyl-phenoxy)-piperidin-1-yl]-2H-[1,2,4]triazine-3,5-dione], 57%.
Still for that read-out and setting: under `Cn1c(=O)c(N2CCC(Oc3ccccc3Cl)CC2)nn(CCC#N)c1=O` [Example 23, 3-{6-[4-(2-chloro-phenoxy)-piperidin-1-yl]-4-methyl-3,5-dioxo-4,5-dihydro-3H-[1,2,4]triazin-2-yl}-propionitrile] stands 73%; under `Cn1c(=O)c(N2CCC(Oc3ccccc3Cl)CC2)nn(CCCC(F)(F)F)c1=O` [Example 25, 6-[4-(2-chloro-phenoxy)-piperidin-1-yl]-4-methyl-2-(4,4,4-trifluoro-butyl)-2H-[1,2,4]triazine-3,5-dione], 70%; under `Cn1nc(N2CCC(Oc3ccccc3Cl)CC2)c(=O)n(C)c1=O` [Example 27, 6-[4-(2-chloro-phenoxy)-piperidin-1-yl]-2,4-dimethyl-2H-[1,2,4]triazine-3,5-dione], 82%.
The same measure, in the same setting: then `Cn1nc(N2CCC(Oc3ccccc3F)CC2)c(=O)n(C)c1=O` [Example 28, 6-[4-(2-fluoro-phenoxy)-piperidin-1-yl]-2,4-dimethyl-2H-[1,2,4]triazine-3,5-dione], with 50%.
On to `Cn1c(=O)c(N2CCN(C(=O)c3cc(F)ccc3C(F)(F)F)CC2)nn(CCCC(F)(F)F)c1=O` [Example 47, 6-[4-(5-fluoro-2-trifluoromethyl-benzoyl)-piperazin-1-yl]-4-methyl-2-(4,4,4-trifluoro-butyl)-2H-[1,2,4]triazine-3,5-dione], for which the inhibition at 10 µM stood at 84%.
Take `CC(C)CCn1nc(N2CCN(C(=O)c3cc(F)ccc3C(F)(F)F)CC2)c(=O)n(C)c1=O` [Example 48, 6-[4-(5-fluoro-2-trifluoromethyl-benzoyl)-piperazin-1-yl]-4-methyl-2-(3-methyl-butyl)-2H-[1,2,4]triazine-3,5-dione]: the inhibition at 10 µM came out at 64%.
Still for that read-out and setting: then `Cn1c(=O)c(N2CCN(Cc3ccccc3C(F)(F)F)CC2)nn(CCCC(F)(F)F)c1=O` [Example 57, 4-methyl-2-(4,4,4-trifluoro-butyl)-6-[4-(2-trifluoromethyl-benzyl)-piperazin-1-yl]-2H-[1,2,4]triazine-3,5-dione], with 71%; and `Cn1c(=O)[nH]nc(N2CCN(C(=O)c3cc(F)ccc3C(F)(F)F)CC2)c1=O` [Example 69, 6-[4-(5-fluoro-2-trifluoromethyl-benzoyl)-piperazin-1-yl]-4-methyl-2H-[1,2,4]triazine-3,5-dione], with 84%.
Still for that read-out and setting: then `Cn1c(=O)[nH]nc(N2CCN(C(=O)c3ccc(F)cc3C(F)(F)F)CC2)c1=O` [Example 70, 6-[4-(4-fluoro-2-trifluoromethyl-benzoyl)-piperazin-1-yl]-4-methyl-2H-[1,2,4]triazine-3,5-dione], with 66%.
On to `Cn1c(=O)[nH]nc(N2CCN(Cc3ccc(F)cc3C(F)(F)F)CC2)c1=O` [Example 71, 6-[4-(4-fluoro-2-trifluoromethyl-benzyl)-piperazin-1-yl]-4-methyl-2H-[1,2,4]triazine-3,5-dione], for which the inhibition at 10 µM amounted to 50%.
On the same count and under the same terms, then `CCCCn1nc(N2CCN(C(=O)c3ccccc3C(F)(F)F)CC2)c(=O)n(C)c1=O` [Example 74, 2-butyl-4-methyl-6-[4-(2-trifluoromethyl-benzoyl)-piperazin-1-yl]-2H-[1,2,4]triazine-3,5-dione], with 60%.
